In ChEMBL document CHEMBL4480431, “Design, synthesis and biological evaluation of imidazo[1,5-a]pyrazin-8(7H)-one derivatives as BRD9 inhibitors” (Bioorg Med Chem, 2019):

What was measured:
[1] = biological target: T1, Bromodomain-containing protein 9 (Homo sapiens) (UniProt Q9H8M2); assay: Inhibition of BRD9 (unknown origin) at 1 uM using H4 peptide as substrate preincubated for 15 mins followed by substrate addition and measured after 60 mins by Alphascreen assay relative to control
T1 sequence (whole entry): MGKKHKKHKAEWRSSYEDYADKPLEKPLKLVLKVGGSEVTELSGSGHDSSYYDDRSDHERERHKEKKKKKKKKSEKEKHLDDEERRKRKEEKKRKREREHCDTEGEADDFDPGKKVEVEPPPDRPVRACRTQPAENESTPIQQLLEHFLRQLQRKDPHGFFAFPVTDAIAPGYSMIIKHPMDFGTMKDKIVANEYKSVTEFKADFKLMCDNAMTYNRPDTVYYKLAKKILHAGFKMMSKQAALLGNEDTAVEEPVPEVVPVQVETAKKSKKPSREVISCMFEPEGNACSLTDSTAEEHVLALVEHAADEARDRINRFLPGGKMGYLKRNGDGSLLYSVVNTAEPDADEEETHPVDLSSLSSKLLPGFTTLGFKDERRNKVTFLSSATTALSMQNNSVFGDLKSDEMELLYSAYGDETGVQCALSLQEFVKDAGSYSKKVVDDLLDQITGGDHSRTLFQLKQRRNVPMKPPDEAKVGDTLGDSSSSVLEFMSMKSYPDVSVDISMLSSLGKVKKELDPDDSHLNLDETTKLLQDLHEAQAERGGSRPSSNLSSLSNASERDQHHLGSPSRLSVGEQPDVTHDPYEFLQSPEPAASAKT

[2] = biological target: T2, Bromodomain-containing protein 9 (Homo sapiens, UniProt Q9H8M2); assay: Inhibition of BRD9 (unknown origin) using H4 peptide as substrate preincubated for 15 mins followed by substrate addition and measured after 60 mins by Alphascreen assay
T2 sequence (Q9H8M2 whole entry): T1 sequence (whole entry)

[3] = test system: EOL1; assay: Antiproliferative activity against human EOL-1 cells; type: functional, cell-based
[4] = test system: A549; assay: Antiproliferative activity against human A549 cells; type: functional, cell-based
[5] = biological target: Bromodomain-containing protein 4 (Homo sapiens) (UniProt O60885); assay: Inhibition of recombinant human BRD4 (44 to 168) residues expressed in Escherichia coli at 1 uM using H4 peptide as substrate preincubated for 15 mins followed by substrate addition and measured after 60 mins by Alphascreen assay relative to control

inhibition [1] [%] | IC50 [2] [µM] | IC50 [4] [µM] | inhibition [5] [%] | SMILES | IC50 [3] [µM]
71 | 0.652 |  |  | C/C=C/Cn1cc(-c2ccc(C(=O)N3CCN(S(C)(=O)=O)CC3)c(F)c2)n2cncc2c1=O | 
87 to 90 |  |  |  | CCOC(=O)Nc1cc(-c2ccc(C)c(NS(C)(=O)=O)c2)nn2c(C)nnc12 | 
80 | 0.557 | > 10 | -3 | C/C=C/Cn1cc(-c2ccc(C(=O)N3CCN(C)CC3)c(Cl)c2)n2cncc2c1=O | 7.03
94 | 0.262 | 7.15 | -5 | C/C=C/Cn1cc(-c2ccc(C(=O)N3CCC(C(N)=O)CC3)c(Cl)c2)n2cncc2c1=O | 3.42
83 | 0.802 |  |  | CCn1cc(-c2ccc(C(=O)N3CCNCC3)c(Cl)c2)n2cncc2c1=O | 
100 | 0.48 | > 10 | -5 | C/C=C/Cn1cc(-c2ccc(C(=O)NC3CCS(=O)(=O)CC3)c(Cl)c2)n2cncc2c1=O | 5.34
99 | 0.035 | 6.12 | -6 | C/C=C/Cn1cc(-c2ccc(C(=O)N3CCNCC3)c(Cl)c2)n2cncc2c1=O | 1.76
27 | 1.5 |  |  | Cn1cc(-c2ccc(C(=O)N3CCOCC3)c(Cl)c2)n2cncc2c1=O | 
 |  |  | 100 | CCS(=O)(=O)Nc1ccc(Oc2ccc(F)cc2)c(-c2cn(C)c(=O)c3cncn23)c1 | 
94 | 0.103 | 6.63 | -5 | C/C=C/Cn1cc(-c2ccc(C(=O)N3CCN(S(C)(=O)=O)CC3)c(Cl)c2)n2cncc2c1=O | 2.29
86 | 0.93 |  |  | CCCn1cc(-c2ccc(C(=O)N3CCNCC3)c(Cl)c2)n2cncc2c1=O | 
6 | 7.41 |  |  | Cn1cc(-c2cccc(C(F)(F)F)c2)n2cncc2c1=O | 
16 | 3.01 |  |  | COc1cccc(-c2cn(C)c(=O)c3cncn23)c1 | 
38 | 0.967 |  |  | C/C=C/Cn1cc(-c2ccc(C(=O)N3CCOCC3)c(F)c2)n2cncc2c1=O | 
21 |  |  |  | CCCCn1cc(-c2ccc(C(=O)NC3CCS(=O)(=O)CC3)c(Cl)c2)n2cncc2c1=O | 
52 | 0.84 |  |  | C/C=C/Cn1cc(-c2ccc(C(=O)N3CCN(S(C)(=O)=O)CC3)cc2Cl)n2cncc2c1=O | 
18 | 2.33 |  |  | Cn1cc(-c2ccc(C(=O)N3CCOCC3)cc2)n2cncc2c1=O | 
91 | 0.465 | > 10 | -2 | C/C=C/Cn1cc(-c2ccc(C(=O)N3CCOCC3)c(Cl)c2)n2cncc2c1=O | 8.17
23 |  |  |  | CCCn1cc(-c2ccc(C(=O)NC3CCS(=O)(=O)CC3)c(Cl)c2)n2cncc2c1=O | 
75 | 1.02 |  |  | CCn1cc(-c2ccc(C(=O)NC3CCS(=O)(=O)CC3)c(Cl)c2)n2cncc2c1=O | 
42 | 0.763 |  |  | C/C=C/Cn1cc(-c2ccc(C(=O)N3CCOCC3)cc2Cl)n2cncc2c1=O | 
68 | 0.73 |  |  | CCCCn1cc(-c2ccc(C(=O)N3CCNCC3)c(Cl)c2)n2cncc2c1=O | 
7 | 7.21 |  |  | Cn1cc(-c2ccccc2)n2cncc2c1=O | 
48 | 0.827 |  |  | CCCCn1cc(-c2ccc(C(=O)N3CCOCC3)c(Cl)c2)n2cncc2c1=O | 
5 |  |  |  | CCn1cc(-c2ccc(C(=O)N3CCOCC3)c(Cl)c2)n2cncc2c1=O | 
87 | 0.438 | 8.23 | -4 | C/C=C/Cn1cc(-c2ccc(C(=O)N3CCCC3)c(Cl)c2)n2cncc2c1=O | 5.82
